Key:
Type in all cases: cell-based
PfCRT^Dd2 [1] = target: T1, PfCRT^Dd2 (Plasmodium falciparum, UniProt Q9N623, A220S/I356T/K76T/M74I/N326S/N75E/Q271E/R371I); test: [3H]CQ uptake into Xenopus oocytes, cis-inhibition by unlabelled solute; details: PfCRTDd2 oocytes, background [3H]CQ accumulation subtracted, normalised to oocyte type control
Description: (§1) The orientation of PfCRT in the parasite’s DV membrane, and also in the oocyte plasma membrane, is such that its N- and C-termini extend into the cytosol. The oocytes were suspended in a reaction buffer adjusted to pH 5.5 to mimic the pH of the DV lumen[1],[2]. In this scenario, the transport of a substrate via PfCRT from the acidic extracellular solution into the oocyte cytosol[15] is analogous to the parasite’s PfCRT-mediated efflux of a substrate from the acidic DV and into the cytosol. Unless specified otherwise, this is the direction in which substrate transport was measured in the oocyte assays.
(§2) Unless specified otherwise, the transport assays were conducted over 1.5 h at 27.5 °C and the reaction buffer was ND96 (96 mM NaCl, 2 mM KCl, 1 mM MgCl2, 1.8 mM CaCl2, 10 mM MES and 10 mM Tris-base) at pH 5.5.
(§3) Ten oocytes were washed twice with the relevant ND96 buffer. […] The assay was terminated by removing the reaction buffer and washing the oocytes with ice-cold ND96 buffer. The oocytes were lysed in 10% (w/v) sodium dodecyl sulfate (SDS) and the radioactivity accumulated within each oocyte was measured with a MicroBeta^2 microplate liquid scintillation analyser (PerkinElmer).
(§4) At least four independent experiments were performed (on different days and using oocytes from different frogs), and within each experiment measurements were made from ten oocytes per treatment.

PfCRT^Ecu1110 [2] = target: T2, PfCRT^Ecu1110 (Plasmodium falciparum, UniProt Q9N623, A220S/I356L/K76T/N326D); test: as above; details: for PfCRT-mediated [3H]CQ transport, cis-inhibition (% PfCRTEcu1110 control): PfCRTEcu1110 oocytes, background [3H]CQ accumulation subtracted, normalised to oocyte type control; for [3H]CQ transport (% PfCRTEcu1110 control), cis-inhibition, PfCRTEcu1110: PfCRT-mediated component (background subtracted), sheet title says normalised to PfCRTDd2 control, mean ± SEM, SEM
T2 sequence (Q9N623 whole entry A220S/I356L/K76T/N326D): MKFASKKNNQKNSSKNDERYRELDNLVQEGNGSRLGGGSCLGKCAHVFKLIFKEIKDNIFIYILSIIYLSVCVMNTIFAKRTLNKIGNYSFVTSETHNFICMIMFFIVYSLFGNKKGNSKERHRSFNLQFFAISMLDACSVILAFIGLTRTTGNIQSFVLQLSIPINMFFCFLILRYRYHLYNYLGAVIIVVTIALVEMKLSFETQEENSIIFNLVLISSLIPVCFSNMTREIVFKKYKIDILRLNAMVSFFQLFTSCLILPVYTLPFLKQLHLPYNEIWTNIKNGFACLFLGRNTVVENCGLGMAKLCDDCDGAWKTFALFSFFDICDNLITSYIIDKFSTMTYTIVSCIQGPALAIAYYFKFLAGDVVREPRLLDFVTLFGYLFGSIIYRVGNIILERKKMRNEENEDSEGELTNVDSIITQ
Description: as §1, §2, §3, §4

PfCRT^Dd2 [3] = target: T1, PfCRT^Dd2; test: cell-based; details: for PfCRT-mediated [3H]CQ transport, trans-stimulation (% PfCRTDd2 control): PfCRTDd2 oocytes, normalised to oocyte type control; for [3H]CQ transport (% PfCRTDd2 control), trans-stimulation, PfCRTDd2: PfCRT-mediated component (background subtracted), mean ± SEM, SEM
Description: as §2
(§5) The intracellular concentrations were calculated using previous estimates of the volume of stage V–VI oocytes (~400 nL[60]). […] The oocytes were injected with VF-6 suspended in 25 nL ND96 buffer adjusted to pH 5.0, 5.5, 6.0 or 7.0, which corresponded to the injection of 2.5–250 fmol of H^+. The Na^+-dependence of the trans-stimulatory effect of VF-6 was assessed by injecting the oocytes with VF-6 suspended in ND96 buffer (pH 5.5) or a Na^+-free version of this buffer (the Na^+ was replaced with choline).
as §4

PfCRT^Ecu1110 [4] = target: T2, PfCRT^Ecu1110; test: cell-based; details: for PfCRT-mediated [3H]CQ transport, trans-stimulation (% PfCRTEcu1110 control): PfCRTEcu1110 oocytes, normalised to oocyte type control; for [3H]CQ transport (% PfCRTDd2 control), trans-stimulation, PfCRTEcu1110: PfCRT-mediated component (background subtracted), sheet title says normalised to PfCRTDd2 control, mean ± SEM, SEM
Description: as §2, §5, §4

PfCRT^3D7 = PfCRT^3D7 (Plasmodium falciparum, UniProt Q8IBZ9); test: cell-based; details: PfCRT3D7 oocytes, normalised to oocyte type control
PfCRT^3D7, sequence (Q8IBZ9 59-398): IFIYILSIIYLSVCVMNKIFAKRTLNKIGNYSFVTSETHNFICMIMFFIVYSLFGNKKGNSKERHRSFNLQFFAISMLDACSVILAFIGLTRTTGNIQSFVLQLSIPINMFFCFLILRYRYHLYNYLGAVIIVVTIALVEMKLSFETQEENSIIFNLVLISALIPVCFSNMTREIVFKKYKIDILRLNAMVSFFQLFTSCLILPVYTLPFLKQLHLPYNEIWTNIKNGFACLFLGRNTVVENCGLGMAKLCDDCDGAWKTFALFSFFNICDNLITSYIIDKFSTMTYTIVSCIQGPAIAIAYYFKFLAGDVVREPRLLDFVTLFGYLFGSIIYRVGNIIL
Description: as §2, §5, §4

[5] = [test solute]i = 5 mM (intracellular)
[6] = [test solute]i = 45 mM (intracellular; 30 mM for some solutes due to solubility)
[7] = [test solute]i = 5 mM (injected)
[8] = [test solute]i = 45 mM (30 mM for some solutes due to solubility)

T1 sequence (Q9N623 whole entry A220S/I356T/K76T/M74I/N326S/N75E/Q271E/R371I): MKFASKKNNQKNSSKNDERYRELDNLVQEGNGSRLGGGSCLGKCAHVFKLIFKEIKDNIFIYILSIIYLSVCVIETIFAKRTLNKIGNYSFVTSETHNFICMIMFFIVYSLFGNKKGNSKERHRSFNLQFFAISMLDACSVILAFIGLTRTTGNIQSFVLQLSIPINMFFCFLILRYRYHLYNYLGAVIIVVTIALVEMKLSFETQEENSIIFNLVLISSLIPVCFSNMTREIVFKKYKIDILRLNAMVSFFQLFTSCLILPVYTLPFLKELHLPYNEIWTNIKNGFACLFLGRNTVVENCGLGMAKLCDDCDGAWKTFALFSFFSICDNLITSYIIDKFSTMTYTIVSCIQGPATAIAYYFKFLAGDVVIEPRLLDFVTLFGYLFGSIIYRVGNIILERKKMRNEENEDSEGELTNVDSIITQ

Row | Substance | PfCRT-mediated [3H]CQ transport, cis-inhibition (% PfCRTDd2 control) (PfCRT^Dd2 [1]; [test solute] = 0.5 mM) | PfCRT-mediated [3H]CQ transport, cis-inhibition (% PfCRTDd2 control) (PfCRT^Dd2 [1]; [test solute] = 1 mM) | PfCRT-mediated [3H]CQ transport, cis-inhibition (% PfCRTDd2 control) (PfCRT^Dd2 [1]; [test solute] = 2 mM) | PfCRT-mediated [3H]CQ transport, cis-inhibition (% PfCRTEcu1110 control) (PfCRT^Ecu1110 [2]; [test solute] = 0.5 mM) | PfCRT-mediated [3H]CQ transport, cis-inhibition (% PfCRTEcu1110 control) (PfCRT^Ecu1110 [2]; [test solute] = 1 mM) | PfCRT-mediated [3H]CQ transport, cis-inhibition (% PfCRTEcu1110 control) (PfCRT^Ecu1110 [2]; [test solute] = 2 mM) | PfCRT-mediated [3H]CQ transport, trans-stimulation (% PfCRTDd2 control) (PfCRT^Dd2 [3]; [5]) | PfCRT-mediated [3H]CQ transport, trans-stimulation (% PfCRTDd2 control) (PfCRT^Dd2 [3]; [6]) | PfCRT-mediated [3H]CQ transport, trans-stimulation (% PfCRTEcu1110 control) (PfCRT^Ecu1110 [4]; [5]) | PfCRT-mediated [3H]CQ transport, trans-stimulation (% PfCRTEcu1110 control) (PfCRT^Ecu1110 [4]; [6]) | PfCRT-mediated [3H]CQ transport, trans-stimulation (% PfCRT3D7 control) (PfCRT^3D7; [5]) | PfCRT-mediated [3H]CQ transport, trans-stimulation (% PfCRT3D7 control) (PfCRT^3D7; [6]) | [3H]CQ transport (% PfCRTEcu1110 control), cis-inhibition, PfCRTEcu1110 (PfCRT^Ecu1110 [2]; [test solute] = 0.5 mM) [% PfCRTEcu1110 control] | [3H]CQ transport (% PfCRTEcu1110 control), cis-inhibition, PfCRTEcu1110 (PfCRT^Ecu1110 [2]; [test solute] = 1 mM) [% PfCRTEcu1110 control] | [3H]CQ transport (% PfCRTEcu1110 control), cis-inhibition, PfCRTEcu1110 (PfCRT^Ecu1110 [2]; [test solute] = 2 mM) [% PfCRTEcu1110 control] | [3H]CQ transport (% PfCRTDd2 control), trans-stimulation, PfCRTDd2 (PfCRT^Dd2 [3]; [7]) [% PfCRTDd2 control] | [3H]CQ transport (% PfCRTDd2 control), trans-stimulation, PfCRTDd2 (PfCRT^Dd2 [3]; [8]) [% PfCRTDd2 control] | [3H]CQ transport (% PfCRTDd2 control), trans-stimulation, PfCRTEcu1110 (PfCRT^Ecu1110 [4]; [7]) [% PfCRTEcu1110 control] | [3H]CQ transport (% PfCRTDd2 control), trans-stimulation, PfCRTEcu1110 (PfCRT^Ecu1110 [4]; [8]) [% PfCRTEcu1110 control]
1 | VVYPWTQR [VR-8] | 40 ± 3.2 | 22 ± 1.1 | 11 ± 0.8 | 42 ± 2.6 | 32 ± 1.9 | 21 ± 1.4 | 96 ± 1.4 | 95 ± 1.5 | 97 ± 1.8 | 98 ± 3.7 | 96 ± 2.8 | 98 ± 2.9 | – | – | – | – | – | – | –
2 | HAGEYG [HG-6] | 36 ± 2.1 | 22 ± 0.9 | 9.3 ± 0.1 | 35 ± 4.6 | 27 ± 4.1 | – | 101 ± 3.3 | 98 ± 2.5 | 98 ± 2.4 | 96 ± 3.3 | 136 ± 3.6 | 190 ± 4.2 | 11 ± 0.5 | 9.0 ± 0.05 | 4.0 ± 0.01 | 101 ± 3.3 | 98 ± 2.5 | 30 ± 1.5 | 29 ± 1.3
3 | LDNLK [LK-5] | 31 ± 1.4 | 21 ± 1.9 | 13 ± 0.7 | 40 ± 1.4 | 30 ± 1.9 | 21 ± 1.9 | 100 ± 1.3 | 94 ± 3.2 | 97 ± 4.2 | 136 ± 5.1 | 127 ± 4.2 | 180 ± 7.2 | 13 ± 0.1 | 9.0 ± 0.03 | 7.0 ± 0.03 | 100 ± 1.3 | 94 ± 3.2 | 29 ± 1.4 | 41 ± 2.1
4 | YPWTQ [YQ-5] | 67 ± 2.2 | 51 ± 3.2 | 27 ± 1.1 | 72 ± 6.9 | 61 ± 1.4 | 49 ± 2.5 | 97 ± 4.6 | 96 ± 2.7 | 99 ± 3.5 | 98 ± 2.2 | 96 ± 3.5 | 97 ± 3.7 | 23 ± 0.4 | 19 ± 0.3 | 15 ± 0.5 | 97 ± 4.6 | 96 ± 2.7 | 30 ± 1.0 | 30 ± 1.3
5 | GTFAT [GT-5] | 62 ± 2.0 | 50 ± 2.2 | 20 ± 1.1 | 51 ± 1.1 | 41 ± 2.5 | 30 ± 0.4 | 96 ± 3.5 | 96 ± 4.2 | 98 ± 4.6 | 98 ± 4.4 | 96 ± 3.5 | 96 ± 3.4 | – | 13 ± 0.3 | 9.0 ± 0.1 | 96 ± 3.5 | 96 ± 4.2 | 30 ± 1.6 | 30 ± 1.7

— publication PMC7413254 (Nature Communications, 2020)
